Laboratory results from US20260078130A1, “NAMPT MODULATORS, PREPARATIONS, AND USES THEREOF” (SIRONAX LTD., priority 2022, published 2026).
Where two headings read alike, the source gives them in different places.

Target: T1, human enzyme NAMPT (full length) (Homo sapiens, UniProt P43490)
T1 construct: human enzyme NAMPT (full length)
Assay: NMN fluorescence biochemical assay (stimulation of NMN synthesis by NAMPT)
Details: for EC50: concentration giving half-maximal activation, read-out: Enzymatic EC50; for Enzymatic Emax: fold change of maximal activation compared to DMSO
Method: Certain compounds described herein were assayed for their ability to stimulate the synthesis of nicotinamide mononucleotide (NMN) by human enzyme NAMPT (full length). The enzymatic assay was performed in a 384-well plate using a TMD buffer (50 mM Tris-HCl, 10 mM MgCl2, 2 mM DTT, pH 7.5). Purified NAMPT (100 nM) was pre-incubated with 0.2 μL. DMSO solution of the test compound (with a series of concentrations) in 10 μL TMD buffer for 15 min at 37° C. The reaction was initiated by adding 10 μL solution of NAM (50 μM), PRPP (100 μM), and ATP (4 mM) in TMD buffer. After 1 h of incubation at 37 T, an aliquot (20 μL) of the NMN-containing sample was sequentially mixed with 5 μL of 20% acetophenone (in DMSO) and 5 μL of 2M KOH. The mixture was placed on ice for 10 min. Next, 22.5 μL of 100% formic acid was added to each sample, vortexed, and then incubated at 37° C. for 20 min. Fluorescence (Ex/Em=382/445 nm) was measured using an Envision plate reader. The potency measurements for the test compounds were quantified and represented as EC50 (concentration of a compound that gives half-maximal activation) and Emax (fold change of a compound's maximal activation compared to DMSO).

[1] = NMN fluorescence assay, purified human NAMPT 100 nM
[2] = NMN synthesis by purified human NAMPT (100 nM)

T1 sequence (P43490 whole entry): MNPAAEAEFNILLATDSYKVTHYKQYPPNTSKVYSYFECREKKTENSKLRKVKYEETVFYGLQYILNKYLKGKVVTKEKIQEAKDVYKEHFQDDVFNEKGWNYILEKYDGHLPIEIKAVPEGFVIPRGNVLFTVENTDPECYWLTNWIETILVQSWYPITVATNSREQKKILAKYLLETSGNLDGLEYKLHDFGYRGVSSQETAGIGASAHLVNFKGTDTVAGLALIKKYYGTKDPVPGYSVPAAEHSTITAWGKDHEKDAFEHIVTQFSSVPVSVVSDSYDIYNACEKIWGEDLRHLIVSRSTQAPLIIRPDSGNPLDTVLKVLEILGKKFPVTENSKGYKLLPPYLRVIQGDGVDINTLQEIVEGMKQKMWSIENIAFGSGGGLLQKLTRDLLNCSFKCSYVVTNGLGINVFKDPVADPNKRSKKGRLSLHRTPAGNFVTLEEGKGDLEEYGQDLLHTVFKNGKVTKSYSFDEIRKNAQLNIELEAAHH

Row | SMILES | EC50 [1] [µM] | Enzymatic Emax | EC50 [2] [µM]
1 | O=C1N[C@H]2CCC(CN3C(=O)c4ccccc4C3Cc3ncccc3Br)C[C@@H]2O1 (relative stereo) [Compound 466, trans-6-((1-((3-bromopyridin-2-yl)methyl)-3-oxoisoindolin-2-yl)methyl)hexahydrobenzo[d]oxazol-2(3H)-one] | ≥ 5 | C (2≥C) | –
2 | Cn1ncc(Cl)c1CC1c2ccccc2C(=O)N1C[C@@H]1C[C@H]1c1c[nH]nn1 (relative stereo) [Compound 548, trans 2-((2-(1H-1,2,3-triazol-4-yl)cyclopropyl)methyl)-3-((4-chloro-1-methyl-1H-pyrazol-5-yl)methyl)isoindolin-1-one] | 0.5 to 5 | – | –
3 | COC1CN(Cc2ccc3c(c2)[C@H](C)N(Cc2ccc4[nH]c(=O)oc4c2)C3=O)C1 (single isomer, unassigned) [Compound 185] | – | B (3≥B>2) | ≥ 5
4 | O=C1COc2ccccc2N1Cc1ccc(O)cc1 [Compound 6, 4-(4-hydroxybenzyl)-2H-benzo[b][1,4]oxazin-3(4H)-one] | – | B (3≥B>2) | ≥ 5
5 | O=C1c2ccccc2CCN1Cc1ccc2[nH]c(=O)oc2c1 [Compound 8, 6-((1-oxo-3,4-dihydroisoquinolin-2(1H)-yl)methyl)benzo[d]oxazol-2(3H)-one] | – | B (3≥B>2) | ≥ 5
6 | O=C1Cc2ccccc2CN1Cc1ccc(O)cc1 [Compound 10, 2-(4-hydroxybenzyl)-1,4-dihydroisoquinolin-3(2H)-one] | – | B (3≥B>2) | ≥ 5
7 | O=c1[nH]n(Cc2ccc(O)cc2)c2ccccc12 [Compound 13, 1-(4-hydroxybenzyl)-1,2-dihydro-3H-indazol-3-one] | – | B (3≥B>2) | ≥ 5
8 | O=C1c2cccc(Nc3ccccc3)c2C(=O)N1Cc1ccc(O)cc1 [Compound 17, 2-(4-hydroxybenzyl)-4-(phenylamino)isoindoline-1,3-dione] | – | B (3≥B>2) | 0.5 to 5
9 | CC(C)(C)c1ccc2c(c1)C(=O)N(Cc1ccc(O)cc1)C2=O [Compound 18, 5-(tert-butyl)-2-(4-hydroxybenzyl)isoindoline-1,3-dione] | – | B (3≥B>2) | 0.5 to 5
10 | CCn1c2ccccc2c(=O)n1Cc1ccc(O)cc1 [Compound 24, 1-ethyl-2-(4-hydroxybenzyl)-1,2-dihydro-3H-indazol-3-one] | – | A (A>3) | ≥ 5
11 | N#CC1c2ccccc2C(=O)N1Cc1ccc(O)cc1 (centres unmarked) [Compound 28, 2-(4-hydroxybenzyl)-3-oxoisoindoline-1-carbonitrile] | – | A (A>3) | ≥ 5
12 | COc1ccc2c(c1)C(=O)N(Cc1ccc(O)cc1)C2=O [Compound 30, 2-(4-hydroxybenzyl)-5-methoxyisoindoline-1,3-dione] | – | A (A>3) | 0.5 to 5
13 | Cc1ccc2c(c1)C(=O)N(Cc1ccc(O)cc1)C2 [Compound 32, 2-(4-hydroxybenzyl)-6-methylisoindolin-1-one] | – | A (A>3) | ≥ 5
14 | CNC(=O)c1ccc2c(c1)C(C)N(Cc1ccc3[nH]c(=O)oc3c1)C2=O (centres unmarked) [Compound 92, N,3-dimethyl-1-oxo-2-((2-oxo-2,3-dihydrobenzo[d]oxazol-6-yl)methyl)isoindoline-5-carboxamide] | – | B (3≥B>2) | ≥ 5
15 | Cc1ncccc1CC1c2ccccc2C(=O)N1Cc1ccc2[nH]c(=O)oc2c1 (centres unmarked) [Compound 165, 6-((1-((2-methylpyridin-3-yl)methyl)-3-oxoisoindolin-2-yl)methyl)benzo[d]oxazol-2(3H)-one] | – | B (3≥B>2) | 0.5 to 5
16 | N#Cc1cccc(F)c1C[C@@H]1c2ccccc2C(=O)N1Cc1ccc2[nH]c(=O)oc2c1 [Compound 171, (R)-3-fluoro-2-((3-oxo-2-((2-oxo-2,3-dihydrobenzo[d]oxazol-6-yl)methyl)isoindolin-1-yl)methyl)benzonitrile] | – | C (2≥C) | ≥ 5
17 | Cc1cccnc1C[C@@H]1c2ccccc2C(=O)N1Cc1ccc2[nH]c(=O)oc2c1 [Compound 177, (R)-6-((1-((3-methylpyridin-2-yl)methyl)-3-oxoisoindolin-2-yl)methyl)benzo[d]oxazol-2(3H)-one] | – | C (2≥C) | ≥ 5

Row | SMILES | EC50 [1] [µM] | Enzymatic Emax | EC50 [2] [µM]
18 | Cc1cc(CC2c3ccccc3C(=O)N2Cc2ccc3[nH]c(=O)oc3c2)ccn1 (centres unmarked) [Compound 179, 6-((1-((2-methylpyridin-4-yl)methyl)-3-oxoisoindolin-2-yl)methyl)benzo[d]oxazol-2(3H)-one] | – | B (3≥B>2) | ≥ 5
19 | COc1cccc(CC2c3ccccc3C(=O)N2Cc2ccc3[nH]c(=O)oc3c2)c1 (centres unmarked) [Compound 180, 6-((1-(3-methoxybenzyl)-3-oxoisoindolin-2-yl)methyl)benzo[d]oxazol-2(3H)-one] | – | B (3≥B>2) | 0.5 to 5
20 | CC(C)c1cccnc1CC1c2ccccc2C(=O)N1Cc1ccc2[nH]c(=O)oc2c1 (centres unmarked) [Compound 181, 6-((1-((3-isopropylpyridin-2-yl)methyl)-3-oxoisoindolin-2-yl)methyl)benzo[d]oxazol-2(3H)-one] | – | B (3≥B>2) | ≥ 5
21 | O=C1c2ccccc2C(Cc2cccnc2F)N1Cc1ccc2[nH]c(=O)oc2c1 (centres unmarked) [Compound 183, 6-((1-((2-fluoropyridin-3-yl)methyl)-3-oxoisoindolin-2-yl)methyl)benzo[d]oxazol-2(3H)-one] | – | B (3≥B>2) | 0.5 to 5
22 | O=C1c2ccccc2C(Cc2ncccc2C2CC2)N1Cc1ccc2[nH]c(=O)oc2c1 (centres unmarked) [Compound 184, 6-((1-((3-cyclopropylpyridin-2-yl)methyl)-3-oxoisoindolin-2-yl)methyl)benzo[d]oxazol-2(3H)-one] | – | B (3≥B>2) | 0.5 to 5
23 | O=C1c2ccccc2C(Cc2ccc(F)cn2)N1Cc1ccc2[nH]c(=O)oc2c1 (centres unmarked) [Compound 194, 6-((1-((5-fluoropyridin-2-yl)methyl)-3-oxoisoindolin-2-yl)methyl)benzo[d]oxazol-2(3H)-one] | – | B (3≥B>2) | 0.5 to 5
24 | O=C1c2ccccc2C(Cc2ccc(Cl)cn2)N1Cc1ccc2[nH]c(=O)oc2c1 (centres unmarked) [Compound 196, 6-((1-((5-chloropyridin-2-yl)methyl)-3-oxoisoindolin-2-yl)methyl)benzo[d]oxazol-2(3H)-one] | – | B (3≥B>2) | 0.5 to 5
25 | N#Cc1cccc(CC2c3ccccc3C(=O)N2Cc2ccc3[nH]c(=O)oc3c2)c1F (centres unmarked) [Compound 204, 2-fluoro-3-((3-oxo-2-((2-oxo-2,3-dihydrobenzo[d]oxazol-6-yl)methyl)isoindolin-1-yl)methyl)benzonitrile] | – | B (3≥B>2) | 0.5 to 5
26 | Nc1ccccc1CC1c2ccccc2C(=O)N1Cc1ccc2[nH]c(=O)oc2c1 (centres unmarked) [Compound 208, 6-((1-(2-aminobenzyl)-3-oxoisoindolin-2-yl)methyl)benzo[d]oxazol-2(3H)-one] | – | B (3≥B>2) | 0.5 to 5
27 | COc1ccc(CC2c3ccccc3C(=O)N2Cc2ccc3[nH]c(=O)oc3c2)cc1 (centres unmarked) [Compound 213, 6-((1-(4-methoxybenzyl)-3-oxoisoindolin-2-yl)methyl)benzo[d]oxazol-2(3H)-one] | – | A (A>3) | 0.5 to 5
28 | O=C1c2ccccc2C(Cc2ccc3ncoc3c2)N1Cc1ccc2[nH]c(=O)oc2c1 (centres unmarked) [Compound 216, 6-((1-(benzo[d]oxazol-6-ylmethyl)-3-oxoisoindolin-2-yl)methyl)benzo[d]oxazol-2(3H)-one] | – | A (A>3) | 0.5 to 5
29 | O=C1c2ccccc2C(Cc2cccc3ncoc23)N1Cc1ccc2[nH]c(=O)oc2c1 (centres unmarked) [Compound 218, 6-((1-(benzo[d]oxazol-7-ylmethyl)-3-oxoisoindolin-2-yl)methyl)benzo[d]oxazol-2(3H)-one] | – | A (A>3) | 0.5 to 5
30 | N#Cc1cccc(CC2c3ccccc3C(=O)N2Cc2ccc3[nH]c(=O)oc3c2)n1 (centres unmarked) [Compound 219, 6-((3-oxo-2-((2-oxo-2,3-dihydrobenzo[d]oxazol-6-yl)methyl)isoindolin-1-yl)methyl)picolinonitrile] | – | B (3≥B>2) | 0.5 to 5
31 | O=C1c2ccccc2C(Cc2cc(Cl)ccn2)N1Cc1ccc2[nH]c(=O)oc2c1 (centres unmarked) [Compound 220, 6-((1-((4-chloropyridin-2-yl)methyl)-3-oxoisoindolin-2-yl)methyl)benzo[d]oxazol-2(3H)-one] | – | B (3≥B>2) | 0.5 to 5
32 | O=C1c2ccccc2C(Cc2ncccc2Br)N1Cc1cnc2[nH]c(=O)oc2c1 (centres unmarked) [Compound 222, 6-((1-((3-bromopyridin-2-yl)methyl)-3-oxoisoindolin-2-yl)methyl)oxazolo[4,5-b]pyridin-2(3H)-one] | – | B (3≥B>2) | ≥ 5
33 | O=C1c2ccccc2C(CC2CCOCC2)N1Cc1ccc2[nH]c(=O)oc2c1 (centres unmarked) [Compound 226, 6-((1-oxo-3-((tetrahydro-2H-pyran-4-yl)methyl)isoindolin-2-yl)methyl)benzo[d]oxazol-2(3H)-one] | – | B (3≥B>2) | ≥ 5
